Legend:
rabbit endometrium = test: Endometrial transformation in rabbit (Clauberg test, McPhail index); format: in vivo
Method: The test is performed in juvenile female rabbits (New Zealand white, 30 to 35 days old; obtained from Schriever, Germany). From days 1 to 4, all rabbits are primed with […] (s.c., 0.5 ml/kg/day) in order to induce proliferation of the endometrium. From days 7 to 10, the test compound is applied orally (p.o., 0.5 ml/kg/day) at doses of 0.001, 0.01 and 0.1 mg/kg/day. A group which receives only vehicle after estradiol priming serves as a negative control. A second group which receives only progesterone in order to induce endometrial differentiation after estradiol priming is used as a positive control. In order to study the progestagenic activity of ((+)-1), which is the most preferred compound according to the present invention, one treatment group-receives only the compound ((+)-1) after estradiol priming.
Autopsy is performed on […]. As a parameter for progestagenic activity, the McPhail index (i.e., the degree of differentiation) is determined by means of light microscopy (scores: 1 to 4; 1=no glandular differentiation, 4=maximal differentiation).

[1] = system: uterine growth in ovariectomized estradiol-treated rats; test: Antiuterotropic activity in the rat (uterine weight, epithelial height); format: in vivo; conditions: for Functional antiestrogenic effect (uterine weight gain, epithelial cell height): 3 days
Excerpt: Compounds with estrogenic activity induce uterine growth, resulting in an increase in uterine weight. They also induce a characteristic change of the appearance of the endometrial epithelium as indicated by an increase in epithelial height. PR modulators counteract estrogenic activity by inhibiting uterine weight gain and epithelial cell proliferation. This effect is sometimes referred to as “functional antiestrogenic” effect.
To test for antiuterotropic activity of the most preferred progestin according to the present invention, i.e., compound ((+)-1), ovariectormized rats are treated for 3 days with 0.3 μg/kg/d estradiol (E2) and in addition with increasing doses of ((+)-1) (cf. FIG. 4). Each test group shown in FIG. 4 consists of 10 rats, with the exception of one group (cf. FIG. 4, bottom diagram, 150 μg/kg of ((+)-1)), indicated by “#”), which consists of nine rats.
Changes in uterine weight, luminal epithelial height and the status of cell proliferation and keratinization of the vaginal smear servs as parameters for estrogenic activity. In combination with ((+)-1), decreases in estrogen-stimulated uterine weight gain and luminal epithelial height are parameters for antiestrogenic activity (cf. FIG. 4).
For the reference group (estradiol (E2)-treated), stimulation of the uterine weight and the luminal epithelial height in comparison to the vehicle control was calculated as follows: […]
In the antiestrogen assay, inhibition of uterine weight or luminal epithelial height in comparison to the effect seen with the reference compound (estradiol) was calculated as follows: […]
For statistical analysis, the 95% confidence interval was calculated using a software which was developed by the Biostatistical Department of Schering AG. The asterisks indicate a significant difference (p<0.05).

PR-A = format: cell-based
Method: The method for screening for PR isoform-specific progestins according to the present invention is carried out with first and second SK-N-MC cells stably transfected with a plasmid expressing the HPR-A (first cells) or the hPR-B (second cells) and the LUC reporter gene linked to the hormonally responsive MTV promoter.
The cells are cultured in Minimum Essential Medium with Earl's Salts (S-MEM, without L-glutamine; Gibco BRL, no. 21090-022), supplemented with 10% fetal calf serum (FCS), penicillin 100U/streptomycin 100 μg/ml (Biochrom, no. A2213), L-glutamine 4 mmol/l (Gibco BRL, no. 25030-024), sodium pyruvate 1 mmol/l (Biochrom, no. L0473) and 1×non-essential amino acids (Biochrom, no. K0293) at a temperature of 37° C. and in an atmosphere of 5% carbon dioxide.
For the transcription assay, the cells are seeded onto 96-well dishes (2×10^4 cells/dish) and cultured in a medium as described above, with the exception that the FCS is replaced by a 3% charcoal stripped FCS. 48 hours later, cells are contacted with prediluted test compounds. For determination of agonistic activity, cells are cultured in the presence of 6 increasing concentrations (10^−6 to 10^−11 mol/l) of test progestins. As a positive control for reporter gene induction cells are treated with 10^−6 to 10^−11 mol/l R5020 (promegestone). As a negative control for reporter gene induction, cells are cultured in 1% ethanol.
After incubation with test progestins for 24 hours, the medium is removed and cells are lysed with 20 μl of lysis buffer (Luciferase Assay System E 153A; Promega) and under agitation of the plate for 101 min. After addition of 30 μl of luciferase reagent (Luciferase Assay System E 151A+152A; Promega) within 30 seconds per plate, the activity of the luciferase reporter gene product is determined in the cell lysates by means of a Microlite ML 3000 microtiter plate luminometer (Dynatech) in cycle mode.
Evaluation of the response gives the efficacy [%], and evaluation of the EC50s values gives the potency [nM]. Calculation of the agonistic activity is conducted as follows:
The LUC activity [%] for the measured data points is calculated as follows:
[formula] wherein CI=100% stimulation (R5020, 10^−7 mol/l) and CO=0% stimulation (ethanol, 1%).
Thus, the efficacy [%] is calculated according to: […]
The potency [nM], i.e. the EC50, is determined graphically.

SMILES: O=C1OCc2cc(NC(=O)C(O)(CC3(c4cc(C(F)(F)F)ccc4F)CC3)C(F)(F)F)ccc21 (single isomer, unassigned; (+)) [((+)-1), (+)-5-{2-hydroxy-3-[1-(2-fluoro-5-trifluoromethylphenyl)-cyclopropyl]-2-trifluoromethyl-propionylamino}-phthalide]
- Potency upon subcutaneous versus oral application, in words (rabbit endometrium; Clauberg test, rabbit): identical potency
- Threshold Value (endometrial transformation) (rabbit endometrium; oral (p.o.)): 0.001 to 0.01 mg/kg
- Functional antiestrogenic effect (uterine weight gain, epithelial cell height) ([1]; 5 μg/kg/d with estradiol): submaximum effect
- Functional antiestrogenic effect (uterine weight gain, epithelial cell height) ([1]; 15 μg/kg/d with estradiol): Maximum effect
- Functional antiestrogenic effect, in words ([1]; in combination with estradiol, FIG. 4): strong functional antiestrogenic effect
- Δ agonism efficacies (A-B) (PR-A; PR-A efficacy minus PR-B efficacy): 64
- PR isoform selectivity in words (PR-A; PR-A versus PR-B): selective PR-A agonist
